This passage reports EC50 results from patent US20250171457A1, “NITROGEN-CONTAINING HETEROCYCLIC COMPOUND HAVING NRF2 ACTIVATION EFFECT” (CHUGAI SEIYAKU KABUSHIKI KAISHA, priority 2022, published 2025).

In this test the test system is Nrf2 transcriptional activity (pARE-Luc reporter) in HepG2 cells. Nature of the test: In vitro Nrf2 transcriptional activity measurement by ARE-dependent reporter assay in HepG2 cell. Format: cell-based, human. Conditions: Homo sapiens; HepG2 cells transfected with pARE-Luc, 4 hours at 37° C.; luciferase activity of Example 1-54 or Example 17-23 at 3.75 μM defined as 100%. In outline:
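HepG2 cells transfected with pGL4.37 (pARE-Luc), replated onto compound and incubated 4 h at 37° C; luciferase read by Bright-Glo luminescence. Response normalized to 100% set by a reference compound at 3.75 μM; EC50 from dose-response curve.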

Consider `CN1CC2(C1)CN(c1cc(Cl)c(C(=O)N3COc4c(cccc4-c4cc(N5CCOCC5)c(C(=O)O)cc4F)C3)c(Cl)c1)C2` [Compound 10-12, 4-[3-[2,6-Dichloro-4-(6-methyl-2,6-diazaspiro[3.3]heptan-2-yl)benzoyl]-2,4-dihydro-1,3-benzoxazin-8-yl]-5-fluoro-2-morpholin-4-ylbenzoic acid], for which it took 1.2 nM to reach a half-maximal effect (EC50).
Turning to `CC(C)N1CCC(Oc2cc(Cl)c(C(=O)N3COc4c(cccc4-c4ccc(C(=O)O)c(N5CCOCC5)c4)C3)c(Cl)c2)CC1` [Compound 10-13, 4-[3-[2,6-Dichloro-4-(1-propan-2-ylpiperidin-4-yl)oxybenzoyl]-2,4-dihydro-1,3-benzoxazin-8-yl]-2-morpholin-4-ylbenzoic acid], the half-maximal effective concentration (EC50) turned out to be 4.2 nM. Against the preceding molecule, the EC50 is about 3.5-fold higher.
In turn, `COC1CN(C2CC3(C2)CN(c2cc(Cl)c(C(=O)N4COc5c(cccc5-c5cc(N6C7CCC6COC7)c(C(=O)O)cc5F)C4)c(Cl)c2)C3)C1` [Compound 11-1, 4-[3-[2,6-Dichloro-4-[6-(3-methoxyazetidin-1-yl)-2-azaspiro [3.3]heptan-2-yl]benzoyl]-2,4-dihydro-1,3-benzoxazin-8-yl]-5-fluoro-2-(3-oxa-8-azabicyclo [3.2.1]octan-8-yl)benzoic acid] had a concentration giving a half-maximal response (EC50) of 3.6 nM.
Turning to `COC1(C)CN(C2CN(c3cc(Cl)c(C(=O)N4COc5c(cccc5-c5cc(N6C7CCC6COC7)c(C(=O)O)cc5F)C4)c(Cl)c3)C2)C1` [Compound 11-2, 4-[3-[2,6-Dichloro-4-[3-(3-methoxy-3-methylazetidin-1-yl)azetidin-1-yl]benzoyl]-2,4-dihydro-1,3-benzoxazin-8-yl]-5-fluoro-2-(3-oxa-8-azabicyclo [3.2.1]octan-8-yl)benzoic acid], the EC50 turned out to be 4.2 nM.
To `O=C(O)c1cc(F)c(-c2cccc3c2OCN(C(=O)c2c(Cl)cc(N4CC(n5cccn5)C4)cc2Cl)C3)cc1N1C2CCC1COC2` [Compound 11-3, 4-[3-[2,6-Dichloro-4-(3-pyrazol-1-ylazetidin-1-yl)benzoyl]-2,4-dihydro-1,3-benzoxazin-8-yl]-5-fluoro-2-(3-oxa-8-azabicyclo[3.2.1]octan-8-yl)benzoic acid] belongs 9.5 nM.
To `O=C(O)c1cc(F)c(-c2cccc3c2OCN(C(=O)c2c(Cl)cc(N4CC(N5CC(OC(F)F)C5)C4)cc2Cl)C3)cc1N1C2CCC1COC2` [Compound 11-4, 4-[3-[2,6-Dichloro-4-[3-[3-(difluoromethoxy)azetidin-1-yl]azetidin-1-yl]benzoyl]-2,4-dihydro-1,3-benzoxazin-8-yl]-5-fluoro-2-(3-oxa-8-azabicyclo[3.2.1]octan-8-yl)benzoic acid] belongs 2 nM.
In the case of `COC1CN(C2(C)CN(c3cc(Cl)c(C(=O)N4COc5c(cccc5-c5cc(N6C7CCC6COC7)c(C(=O)O)cc5F)C4)c(Cl)c3)C2)C1` [Compound 11-5, 4-[3-[2,6-Dichloro-4-[3-(3-methoxyazetidin-1-yl)-3-methylazetidin-1-yl]benzoyl]-2,4-dihydro-1,3-benzoxazin-8-yl]-5-fluoro-2-(3-oxa-8-azabicyclo[3.2.1]octan-8-yl)benzoic acid], the midpoint of the response, the EC50, lay at 2 nM.
To `CC1(N2CCOCC2)CN(c2cc(Cl)c(C(=O)N3COc4c(cccc4-c4cc(N5C6CCC5COC6)c(C(=O)O)cc4F)C3)c(Cl)c2)C1` [Compound 11-6, 4-[3-[2,6-Dichloro-4-(3-methyl-3-morpholin-4-ylazetidin-1-yl)benzoyl]-2,4-dihydro-1,3-benzoxazin-8-yl]-5-fluoro-2-(3-oxa-8-azabicyclo[3.2.1]octan-8-yl)benzoic acid] belongs 2.4 nM; to `O=C(O)c1cc(F)c(-c2cccc3c2OCN(C(=O)c2c(Cl)cc(N4CC(N5CC(OC(F)(F)F)C5)C4)cc2Cl)C3)cc1N1C2CCC1COC2` [Compound 11-7, 4-[3-[2,6-Dichloro-4-[3-[3-(trifluoromethoxy)azetidin-1-yl]azetidin-1-yl]benzoyl]-2,4-dihydro-1,3-benzoxazin-8-yl]-5-fluoro-2-(3-oxa-8-azabicyclo [3.2.1]octan-8-yl)benzoic acid], 5.2 nM.
As to `O=C(O)c1cc(F)c(-c2cccc3c2OCN(C(=O)c2c(Cl)cc(N4CC(N5CC(F)(F)C5)C4)cc2Cl)C3)cc1N1C2CCC1COC2` [Compound 11-8, 4-[3-[2,6-Dichloro-4-[3-(3,3-difluoroazetidin-1-yl)azetidin-1-yl]benzoyl]-2,4-dihydro-1,3-benzoxazin-8-yl]-5-fluoro-2-(3-oxa-8-azabicyclo[3.2.1]octan-8-yl)benzoic acid], the EC50 worked out at 3.1 nM.
Then `O=C(O)c1cc(F)c(-c2cccc3c2OCN(C(=O)c2c(Cl)cc(N4CC(N5CC(F)C5)C4)cc2Cl)C3)cc1N1C2CCC1COC2` [Compound 11-9, 4-[3-[2,6-Dichloro-4-[3-(3-fluoroazetidin-1-yl)azetidin-1-yl]benzoyl]-2,4-dihydro-1,3-benzoxazin-8-yl]-5-fluoro-2-(3-oxa-8-azabicyclo[3.2.1]octan-8-yl)benzoic acid], with 2.7 nM; and `O=C(O)c1cc(F)c(-c2cccc3c2OCN(C(=O)c2c(Cl)cc(N4CC5(CC(OC6CC6)C5)C4)cc2Cl)C3)cc1N1C2CCC1COC2` [Compound 11-10, 4-[3-[2,6-Dichloro-4-(6-cyclopropyloxy-2-azaspiro[3.3]heptan-2-yl)benzoyl]-2,4-dihydro-1,3-benzoxazin-8-yl]-5-fluoro-2-(3-oxa-8-azabicyclo[3.2.1]octan-8-yl)benzoic acid], with 3.8 nM; and `CN(Cc1ccon1)c1cc(-c2cccc3c2OCN(C(=O)c2c(Cl)cc(-c4cnn(C)c4)cc2Cl)C3)c(F)cc1C(=O)O` [Compound 12-1, 4-[3-[2,6-Dichloro-4-(1-methylpyrazol-4-yl)benzoyl]-2,4-dihydro-1,3-benzoxazin-8-yl]-5-fluoro-2-[methyl(1,2-oxazol-3-ylmethyl)amino] benzoic acid], with 11 nM.
Then `Cn1cc(-c2cc(Cl)c(C(=O)N3COc4c(cccc4-c4cc(N5CC6CCC(C5)O6)c(C(=O)O)cc4F)C3)c(Cl)c2)cn1` [Compound 12-2, 4-[3-[2,6-Dichloro-4-(1-methylpyrazol-4-yl)benzoyl]-2,4-dihydro-1,3-benzoxazin-8-yl]-5-fluoro-2-(8-oxa-3-azabicyclo[3.2.1]octan-3-yl)benzoic acid], with 2.6 nM; and `CO[C@H]1CN(c2cc(-c3cccc4c3OCN(C(=O)c3c(Cl)cc(-c5cnn(C)c5)cc3Cl)C4)c(F)cc2C(=O)O)[C@H]1C` [Compound 12-3, 4-[3-[2,6-Dichloro-4-(1-methylpyrazol-4-yl)benzoyl]-2,4-dihydro-1,3-benzoxazin-8-yl]-5-fluoro-2-[(2S,3S)-3-methoxy-2-methylazetidin-1-yl]benzoic acid], with 6 nM; and `CN(c1cc(-c2cccc3c2OCN(C(=O)c2c(Cl)cc(-c4cnn(C)c4)cc2Cl)C3)c(F)cc1C(=O)O)C1COC1` [Compound 12-4, 4-[3-[2,6-Dichloro-4-(1-methylpyrazol-4-yl)benzoyl]-2,4-dihydro-1,3-benzoxazin-8-yl]-5-fluoro-2-[methyl(oxetan-3-yl)amino]benzoic acid], with 15 nM.
Consider `Cn1cc(-c2cc(Cl)c(C(=O)N3COc4c(cccc4-c4cc(N5C6CCC5COC6)c(C(=O)O)cc4F)C3)c(Cl)c2)cn1` [Compound 13-1, 4-[3-[2,6-Dichloro-4-(1-methylpyrazol-4-yl)benzoyl]-2,4-dihydro-1,3-benzoxazin-8-yl]-5-fluoro-2-(3-oxa-8-azabicyclo[3.2.1]octan-8-yl)benzoic acid], for which the half-maximal effective concentration (EC50) turned out to be 7.1 nM.
To `Cn1cc(-c2cc(Cl)c(C(=O)N3Cc4cccc(-c5ccc(C(=O)O)c(N6CCOCC6)c5)c4CN3)c(Cl)c2)cn1` [Compound 13-2, 4-[2-[2,6-Dichloro-4-(1-methylpyrazol-4-yl)benzoyl]-3,4-dihydro-1H-phthalazin-5-yl]-2-morpholin-4-ylbenzoic acid] belongs 18 nM; to `Cc1c(F)c(-c2cccc3c2OCN(C(=O)c2c(Cl)cc(-c4cnn(C)c4)cc2Cl)C3)cc(N2CCOCC2)c1C(=O)O` [Compound 13-3, 4-[3-[2,6-Dichloro-4-(1-methylpyrazol-4-yl)benzoyl]-2,4-dihydro-1,3-benzoxazin-8-yl]-3-fluoro-2-methyl-6-morpholin-4-ylbenzoic acid], 5.3 nM.
Molecule `Cn1cc(-c2cc(Cl)c(C(=O)N3COc4c(cccc4-c4c(F)cc(C(=O)O)c(N5CCOCC5)c4F)C3)c(Cl)c2)cn1` [Compound 13-4, 4-[3-[2,6-Dichloro-4-(1-methylpyrazol-4-yl)benzoyl]-2,4-dihydro-1,3-benzoxazin-8-yl]-3,5-difluoro-2-morpholin-4-ylbenzoic acid] yielded an EC50 of 24 nM.
To `Cn1cc(-c2cc(Cl)c(C(=O)N3COc4c(cccc4-c4ccc(C(=O)O)c(N5CCOCC5)c4F)C3)c(Cl)c2)cn1` [Compound 13-5, 4-[3-[2,6-Dichloro-4-(1-methylpyrazol-4-yl)benzoyl]-2,4-dihydro-1,3-benzoxazin-8-yl]-3-fluoro-2-morpholin-4-ylbenzoic acid] belongs 16 nM; to `Cn1ncc2c(Cl)c(C(=O)N3COc4c(cccc4-c4ccc(C(=O)O)c(N5CCOCC5)c4)C3)ccc21` [Compound 13-6, 4-[3-(4-Chloro-1-methylindazole-5-carbonyl)-2,4-dihydro-1,3-benzoxazin-8-yl]-2-morpholin-4-ylbenzoic acid], 7.5 nM; to `COc1cc(Cl)c(C(=O)N2COc3c(cccc3-c3cc(N4CCOCC4)c(C(=O)O)cc3F)C2)cc1F` [Compound 13-7, 4-[3-(2-Chloro-5-fluoro-4-methoxybenzoyl)-2,4-dihydro-1,3-benzoxazin-8-yl]-5-fluoro-2-morpholin-4-ylbenzoic acid], 6.7 nM.
To `Cn1cc(-c2cc(Cl)c(C(=O)N3COc4c(ccc(F)c4-c4cc(N5CCOCC5)c(C(=O)O)cc4F)C3)c(Cl)c2)cn1` [Compound 13-8, 4-[3-[2,6-Dichloro-4-(1-methylpyrazol-4-yl)benzoyl]-7-fluoro-2,4-dihydro-1,3-benzoxazin-8-yl]-5-fluoro-2-morpholin-4-ylbenzoic acid] belongs 5.4 nM.

For orientation: EC50 means the concentration that produces a half-maximal response. A higher EC50 goes with a need for much substance.
